For test [1], the target named is T1, KRAS G12C (amino acids 1-169) (Homo sapiens, UniProt P01116, G12C).
T1 construct: made in house; host or cells: E. coli
The experiment in a line: SOS-catalyzed nucleotide exchange assay (Procedure B, BODIPY FL GDP displacement), KRAS G12C. Format: biochemical. Particulars: read-out: KRAS G12C GNE IC50. The procedure: (§1) Procedure for SOS-Catalyzed Nucleotide Exchange Assay for KRAS-G12C/D/V/WT (Procedure B)
(§2) Recombinant KRAS G12C (amino acids 1-169, SEQ ID NO:9), KRAS G12D (amino acids 1-169, SEQ ID NO: 10), KRAS G12V (amino acids 1-169, SEQ ID NO: 11), KRAS WT (amino acids 1-169, SEQ ID NO:12) and SOS1 (amino acids 564-1049, SEQ ID NO: 13) proteins were expressed in E. coli and purified by affinity chromatography. To prepare each BODIPY™ FL GDP-bound KRAS protein, 50 μM KRAS proteins were incubated with 0.5 mM BODIPY™ FL GDP (Invitrogen, G22360) in a loading buffer (20 mM Tris-HCl pH 7.5, 50 mM NaCl, 1 mM DTT and 2.5 mM EDTA) for 1 hour on ice. After the incubation, MgCl2 was added to a final concentration of 10 mM, followed by an incubation at room temperature for 30 minutes. The mixtures were allowed to pass through a NAP-5 column to remove free nucleotides and purified BODIPY™ FL GDP-bound KRAS G12C, G12D, G12V and WT proteins were used for compound evaluation.
(§3) The inhibitory activity of compounds on recombinant KRAS is measured by the displacement of the bound BODIPY™ GDP. Specifically, 2.5 nM of each BODIPY™ FL GDP-bound KRAS complex was incubated with various concentrations of compound in a reaction buffer (20 mM Tris-HCl pH 7.5, 100 mM NaCl, 1 mM MgCl2, 2 mM DTT, 0.1% Tween 20) at 25° C. for 1 hour. After the incubation, recombinant SOS1 and GMPPNP (Jena Bioscience GmbH, NU-401) were added and incubated at room temperature for 30 minutes to proceed SOS1-dependent GDP-GTP exchange reaction on KRAS. Displacement of BODIPY™ FL GDP by Guanosine-5′-[(β,γ)-imido]triphosphate, Tetralithium salt (GMPPNP) was measured by calculating the ratio of fluorescence intensities of BODIPY™ FL before and after the exchange reaction. Percent Inhibition was calculated by setting the fluorescence ratio from the reaction without test compound (DMSO control) and the fluorescence ratio from the reaction without SOS1 and GMPPNP as 0% and 100% inhibition, respectively. Dose response curves were analyzed using a 4-parameter logistic model to calculate IC50 values.

Test [2] deals with T2, KRAS G12D (amino acids 1-169) (Homo sapiens, UniProt P01116, G12D).
T2 construct: made in house; host or cells: E. coli
T2 sequence (P01116 with tags, fused parts or gaps isoform P01116-2 G12D): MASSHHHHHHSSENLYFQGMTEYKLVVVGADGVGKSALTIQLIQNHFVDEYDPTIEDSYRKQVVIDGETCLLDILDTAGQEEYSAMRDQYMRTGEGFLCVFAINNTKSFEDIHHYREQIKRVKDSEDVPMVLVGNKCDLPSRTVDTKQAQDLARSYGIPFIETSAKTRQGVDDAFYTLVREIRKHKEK
Nature of the test: SOS-catalyzed nucleotide exchange assay (Procedure B, BODIPY FL GDP displacement), KRAS G12D. Format: biochemical. Particulars: read-out: KRAS G12D GNE IC50. The procedure:
as §1, §2, §3

Test [3] concerns the target T3, KRAS G12V (amino acids 1-169) (Homo sapiens, UniProt P01116, G12V).
T3 construct: made in house; host or cells: E. coli
The experiment in a line: SOS-catalyzed nucleotide exchange assay (Procedure B, BODIPY FL GDP displacement), KRAS G12V. Format: biochemical. Particulars: read-out: KRAS G12V GNE IC50. The procedure: as §1, §2, §3

The target in test [4] is T4, KRAS WT (amino acids 1-169) (Homo sapiens, UniProt P01116).
T4 construct: made in house; host or cells: E. coli
T4 sequence (P01116 with tags, fused parts or gaps isoform P01116-2): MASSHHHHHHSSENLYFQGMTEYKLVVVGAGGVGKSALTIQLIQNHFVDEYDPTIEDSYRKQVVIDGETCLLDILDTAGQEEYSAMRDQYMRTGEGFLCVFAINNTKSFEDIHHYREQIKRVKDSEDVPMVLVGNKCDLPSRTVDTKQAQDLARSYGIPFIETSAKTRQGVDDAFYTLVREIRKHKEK
The experiment in a line: SOS-catalyzed nucleotide exchange assay (Procedure B, BODIPY FL GDP displacement), KRAS WT. Format: biochemical. Particulars: read-out: KRAS WT GNE IC50. The procedure: as §1, §2, §3

A further test addresses KRAS-WT (Homo sapiens, UniProt P01116). The experiment in a line: SOS-catalyzed nucleotide exchange assay (Procedure A, TR-FRET), KRAS-WT. Format: biochemical. To be noted: nucleotide exchange, read-out: KRAS WT GNE IC50. Put shortly:
(§4)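 TR-FRET 520/495 nm ratio read after SOS-driven exchange of Bodipy-GDP for unlabeled GTP (3 mM) on biotinylated RAS bound to Tb-streptavidin. There was a 60 min compound preincubation, RT. Final RAS/SOS and reaction times: G12C 3 nM/40 nM; WT 1 nM/40 nM; NRAS 1.25 nM/40 nM, each 60 min. G12V was 1.25 nM/160 nM, 90 min.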
For orientation: TR-FRET usually uses a lanthanide donor and a delayed reading to cut background.

The target of test [5] is KRAS-G12C (C51S/C80L/C118S) (Homo sapiens, UniProt P01116, C118S/C51S/C80L/G12C). Nature of the test: SOS-catalyzed nucleotide exchange assay (Procedure A, TR-FRET), KRAS-G12C. Format: biochemical. Particulars: nucleotide exchange, Procedure A; read-out: KRAS G12C GNE IC50. In short, it runs like this: as §4
Sequence of KRAS-G12C (C51S/C80L/C118S) (P01116 with tags, fused parts or gaps isoform P01116-2 G12C/C51S/C80L/C118S): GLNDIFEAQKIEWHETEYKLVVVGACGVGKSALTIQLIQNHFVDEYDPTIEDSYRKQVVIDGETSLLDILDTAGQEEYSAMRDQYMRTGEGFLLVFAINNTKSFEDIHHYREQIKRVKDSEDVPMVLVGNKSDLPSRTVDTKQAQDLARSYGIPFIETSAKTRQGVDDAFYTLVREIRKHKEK
The next test concerns the target KRAS-G12D (Homo sapiens, UniProt P01116, G12D). Nature of the test: SOS-catalyzed nucleotide exchange assay (Procedure A, TR-FRET), KRAS-G12D. Particulars: nucleotide exchange, read-out: KRAS G12D GNE IC50. Format: biochemical. In short, it runs like this:
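Signal ratio (520/495 nm, excitation 340 nm) reports Bodipy-GDP retention on biotinylated RAS after SOS-catalyzed exchange with 3 mM GTP. SOS was 40 nM, except 160 nM for G12V. Room-temperature exchange lasted 60 min (90 min for G12V), following a 60 min compound preincubation.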

In another test the target is KRAS-G12V (Homo sapiens, UniProt P01116, G12V). The experiment in a line: SOS-catalyzed nucleotide exchange assay (Procedure A, TR-FRET), KRAS-G12V. Format: biochemical. To be noted: nucleotide exchange, read-out: KRAS G12V GNE IC50. In short, it runs like this: as §4
Sequence of KRAS-G12V (P01116 with tags, fused parts or gaps isoform P01116-2 G12V): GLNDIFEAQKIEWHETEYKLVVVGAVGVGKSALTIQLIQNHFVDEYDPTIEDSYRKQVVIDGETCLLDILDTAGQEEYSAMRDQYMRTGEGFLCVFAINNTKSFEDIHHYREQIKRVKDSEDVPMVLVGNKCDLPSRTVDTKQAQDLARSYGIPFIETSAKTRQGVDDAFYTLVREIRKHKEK
The target of a further test is KRAS-G13D (Homo sapiens, UniProt P01116, G13D). The experiment in a line: SOS-catalyzed nucleotide exchange assay (Procedure A, TR-FRET), KRAS-G13D. Format: biochemical. Particulars: nucleotide exchange, Procedure A; read-out: KRAS G13D GNE IC50.
Sequence of KRAS-G13D (P01116 with tags, fused parts or gaps isoform P01116-2 G13D): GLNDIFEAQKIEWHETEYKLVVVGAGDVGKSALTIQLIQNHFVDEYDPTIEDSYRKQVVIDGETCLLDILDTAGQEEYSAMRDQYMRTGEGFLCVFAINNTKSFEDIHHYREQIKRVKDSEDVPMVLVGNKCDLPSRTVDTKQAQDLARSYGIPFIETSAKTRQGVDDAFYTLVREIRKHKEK
Another test relates to MKN-1 cells. The experiment in a line: Cellular phospho-ERK assay, MKN-1 cells (amplified wild-type KRAS). Particulars: Homo sapiens, amplified wild-type KRAS, 2 hours, read-out: MKN1 pERK IC50. Format: cell-based. Put shortly: (§5)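 Overnight-plated cells on collagen received test compound (up to 30 μM final, threefold steps, ten concentrations) for two hours. After lysis at room temperature, phosphorylated and total ERK were quantified together by Alpha SureFire, and IC50 is based on the phospho-to-total signal ratio.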

Another test has as its system PANC08.13 cells. Nature of the test: Cellular phospho-ERK assay, PANC08.13 cells (homozygous KRAS-G12D). Format: cell-based. To be noted: Homo sapiens, PANC-08-13, KRAS-G12D, 2 hours, read-out: PANC-08.13 pERK IC50. In short, it runs like this: as §5
The subject of the next test is AsPC-1 cells. The experiment in a line: Cellular phospho-ERK assay, AsPC-1 cells (homozygous KRAS-G12D). Format: cell-based. To be noted: Homo sapiens, ASPC1, 2 h, KRAS-G12D, 2 hours, read-out: AsPC1 pERK IC50. Put shortly:
as §5

The test system of a further test is SW620 cells. The experiment in a line: Cellular phospho-ERK assay, SW620 cells (homozygous KRAS-G12V). Format: cell-based. To be noted: Homo sapiens, SW-620, KRAS-G12V, 2 hours, read-out: SW620 pERK IC50. Put shortly:
as §5

A word on the IC50: it is the concentration that gives 50% inhibition.

Sequence of KRAS-WT (P01116 with tags, fused parts or gaps isoform P01116-2): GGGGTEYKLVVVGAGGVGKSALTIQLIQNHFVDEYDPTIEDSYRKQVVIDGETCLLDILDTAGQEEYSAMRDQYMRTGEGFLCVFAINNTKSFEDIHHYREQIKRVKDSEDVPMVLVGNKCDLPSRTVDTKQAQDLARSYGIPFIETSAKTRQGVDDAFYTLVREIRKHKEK
Sequence of KRAS-G12D (P01116 with tags, fused parts or gaps isoform P01116-2 G12D): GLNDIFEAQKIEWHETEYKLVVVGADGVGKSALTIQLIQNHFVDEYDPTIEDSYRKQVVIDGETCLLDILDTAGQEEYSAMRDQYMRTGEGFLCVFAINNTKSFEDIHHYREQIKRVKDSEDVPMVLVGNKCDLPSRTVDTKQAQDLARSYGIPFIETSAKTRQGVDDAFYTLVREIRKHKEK
T1 sequence (P01116 with tags, fused parts or gaps isoform P01116-2 G12C): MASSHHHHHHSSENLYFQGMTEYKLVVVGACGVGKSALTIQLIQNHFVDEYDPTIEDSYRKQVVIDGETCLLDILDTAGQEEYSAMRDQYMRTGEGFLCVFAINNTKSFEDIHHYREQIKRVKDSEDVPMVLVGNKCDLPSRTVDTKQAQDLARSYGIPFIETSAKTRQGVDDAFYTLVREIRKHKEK
T3 sequence (P01116 with tags, fused parts or gaps isoform P01116-2 G12V): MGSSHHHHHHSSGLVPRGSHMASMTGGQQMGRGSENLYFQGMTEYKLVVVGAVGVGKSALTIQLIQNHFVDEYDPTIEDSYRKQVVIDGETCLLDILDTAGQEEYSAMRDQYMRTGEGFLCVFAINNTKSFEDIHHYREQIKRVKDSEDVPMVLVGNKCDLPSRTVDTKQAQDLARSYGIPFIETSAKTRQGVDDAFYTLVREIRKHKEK

Regarding `Cc1cc2[nH]nc(I)c2c(-c2nccc3c2sc2nc(OC[C@@]45CCCN4C[C@H](F)C5)nc(N4CCOC[C@@](C)(O)C4)c23)c1C(F)(F)F` [Ex-149, (6S)-4-(2-(((2R,7aS)-2-fluorotetrahydro-1H-pyrrolizin-7a(5H)-yl)methoxy)-8-(3-iodo-6-methyl-5-(trifluoromethyl)-1H-indazol-4-yl)pyrido[4′,3′:4,5]thieno[2,3-d]pyrimidin-4-yl)-6-methyl-1,4-oxazepan-6-ol], the IC50 was determined as 1920 nM in test [1], 1470 nM in test [2], 2370 nM in test [3] and 1350 nM in [4].

For the molecule `C=Cc1c(C)cc2[nH]ncc2c1-c1nccc2c1sc1nc(OC[C@@]34CCCN3C[C@H](F)C4)nc(N3CCOC[C@@](C)(O)C3)c12` [Ex-35, (6S)-4-(2-(((2R,7aS)-2-fluorotetrahydro-1H-pyrrolizin-7a(5H)-yl)methoxy)-8-(6-methyl-5-vinyl-1H-indazol-4-yl)pyrido[4′,3′:4,5]thieno[2,3-d]pyrimidin-4-yl)-6-methyl-1,4-oxazepan-6-ol], the IC50 came to 66.7 nM at KRAS-WT; 29.2 nM in [5]; 31.9 nM on KRAS-G12D; 73.7 nM at KRAS-G12V; 47.1 nM at KRAS-G13D; 121 nM in the test on MKN-1 cells. In addition, the values for the IC50 in the test on PANC08.13 cells, with AsPC-1 cells and in the test on SW620 cells were 73.5 nM, 264 nM and 172 nM, respectively.

Turning to `Cc1cc2[nH]ncc2c(-c2nccc3c4c(N5CCOC[C@@](C)(O)C5)nc(OC[C@@]56CCCN5C[C@H](F)C6)nc4n(C)c23)c1C(F)F` (single isomer, unassigned) [Ex-10], the IC50 at KRAS-WT worked out at 97.7 nM; in [5], 30.1 nM; at KRAS-G12D, 40.3 nM; on KRAS-G12V, 54 nM; at KRAS-G13D, 93.8 nM; in the test with MKN-1 cells, 200 nM. The IC50 with PANC08.13 cells stood at 191 nM; in the test with AsPC-1 cells it was 439 nM; with SW620 cells, 337 nM.

As to `Cc1cc2[nH]ncc2c(-c2nccc3c2sc2nc(OC[C@@]45CCCN4C[C@H](F)C5)nc(N4CCOC[C@@](C)(O)C4)c23)c1C(F)(F)F` [Ex-126, (6S)-4-(2-(((2R,7aS)-2-fluorotetrahydro-1H-pyrrolizin-7a(5H)-yl)methoxy)-8-(6-methyl-5-(trifluoromethyl)-1H-indazol-4-yl)pyrido[4′,3′:4,5]thieno[2,3-d]pyrimidin-4-yl)-6-methyl-1,4-oxazepan-6-ol], the IC50 was determined as 88.3 nM on KRAS-WT; 30.7 nM in [5]; 34.9 nM at KRAS-G12D; 52.8 nM at KRAS-G12V; 58.6 nM on KRAS-G13D; 169 nM in the test with MKN-1 cells. Moreover, the half-maximal inhibitory concentration (IC50) with PANC08.13 cells amounted to 85.4 nM; in the test on AsPC-1 cells it was 271 nM; with SW620 cells, 320 nM.

Turning to `Cc1cc2[nH]ncc2c(-c2nccc3c4c(N5CCOC[C@@](C)(O)C5)nc(OC[C@@]56CCCN5C[C@H](F)C6)nc4n(C)c23)c1C(F)(F)F` (single isomer, unassigned) [Ex-1], the IC50 at KRAS-WT stood at 93.4 nM; in [5], 19.8 nM; on KRAS-G12D, 41.5 nM; at KRAS-G12V it was 55.6 nM; at KRAS-G13D, 77.4 nM; in the test with MKN-1 cells it was 222 nM. For the same molecule, the IC50 in the test on PANC08.13 cells amounted to 237 nM; with AsPC-1 cells, 376 nM; with SW620 cells, 429 nM.

Take `CCOc1c(C)cc2[nH]ncc2c1-c1nccc2c1sc1nc(OC[C@@]34CCCN3C[C@H](F)C4)nc(N3CCOC[C@@](C)(O)C3)c12` [Ex-38, (6S)-4-(8-(5-ethoxy-6-methyl-1H-indazol-4-yl)-2-(((2R,7aS)-2-fluorotetrahydro-1H-pyrrolizin-7a(5H)-yl)methoxy)pyrido[4′,3′:4,5]thieno[2,3-d]pyrimidin-4-yl)-6-methyl-1,4-oxazepan-6-ol]: the IC50 stood at 239 nM on KRAS-WT; 36 nM in test [5]; 96.6 nM on KRAS-G12D; 186 nM at KRAS-G12V; 123 nM at KRAS-G13D; 197 nM in the test with MKN-1 cells. For the same molecule, the IC50 in the test on PANC08.13 cells was determined as 122 nM; with AsPC-1 cells it was 395 nM; with SW620 cells, 277 nM.

As to `C#Cc1c(C)cc2[nH]ncc2c1-c1nccc2c3c(N4CCOC[C@@](C)(O)C4)nc(OC[C@@]45CCCN4C[C@H](F)C5)nc3n(C)c12` (single isomer, unassigned) [Ex-7], the IC50 amounted to 42.9 nM at KRAS-WT; 129 nM in test [5]; 22.3 nM on KRAS-G12D; 30.2 nM on KRAS-G12V; 22.9 nM on KRAS-G13D; 142 nM in the test on MKN-1 cells. For the same molecule, the IC50 in the test with PANC08.13 cells is 99.9 nM; in the test with AsPC-1 cells it was 248 nM; in the test on SW620 cells, 233 nM.

For `C[C@@]1(O)COCCN(c2nc(OC[C@@]34CCCN3C[C@H](F)C4)nc3sc4c(-c5c(C(F)(F)F)c(Cl)cc6[nH]ncc56)nccc4c23)C1` [Ex-40, (6S)-4-(8-(6-chloro-5-(trifluoromethyl)-1H-indazol-4-yl)-2-(((2R,7aS)-2-fluorotetrahydro-1H-pyrrolizin-7a(5H)-yl)methoxy)pyrido[4′,3′:4,5]thi-eno[2,3-d]pyrimidin-4-yl)-6-methyl-1,4-oxazepan-6-ol], the half-maximal inhibitory concentration (IC50) at KRAS-WT is 138 nM; in [5], 34.4 nM; at KRAS-G12D, 61.5 nM; on KRAS-G12V, 83.4 nM; on KRAS-G13D, 52.4 nM; with MKN-1 cells, 159 nM. In addition, the IC50 in the test on PANC08.13 cells was found to be 114 nM; in the test on AsPC-1 cells, 294 nM; in the test on SW620 cells, 124 nM.

These data come from patent US20260176289A1, “SMALL MOLECULE INHIBITORS OF KRAS PROTEINS” (Merck Sharp & Dohme LLC, priority 2022, published 2026).
